Test results reported in the NIST ThermoML archive (doi:10.1021/je500458e).
± gives the expanded uncertainty stated by the source.

Assay: mn = molality of the nth substance listed, in mol/kg
Settings: 298.15 K, Liquid

Nc1nc(O)c2ncn([C@H]3C[C@H](O)[C@@H](CO)O3)c2n1 [2'-deoxyguanosine] + O
speed of sound [m/s]
Settings | 100 kPa | 10000 kPa | 20000 kPa | 40000 kPa | 60000 kPa | 80000 kPa | 100000 kPa
m1 = 0.009827 | 1497.4 ± 1.5 | – | – | – | – | – | –
m1 = 0.01011 | 1497.4 ± 1.5 | – | – | – | – | – | –
m1 = 0.01028 | 1497.4 ± 1.5 | – | – | – | – | – | –
m1 = 0.0103 | 1497.4 ± 1.5 | 1514 ± 0.63 | 1530.8 ± 0.64 | 1564.4 ± 0.64 | 1597.9 ± 0.64 | 1631.3 ± 0.65 | 1664.4 ± 0.65
m1 = 0.01036 | – | – | 1530.8 ± 0.64 | 1564.4 ± 0.64 | 1597.9 ± 0.64 | 1631.3 ± 0.64 | 1664.4 ± 0.65
m1 = 0.01043 | – | 1514 ± 0.63 | 1530.8 ± 0.64 | 1564.4 ± 0.64 | 1597.9 ± 0.64 | 1631.3 ± 0.64 | 1664.4 ± 0.65
m1 = 0.01048 | 1497.4 ± 1.5 | 1514 ± 0.63 | 1530.8 ± 0.64 | 1564.4 ± 0.64 | 1597.9 ± 0.64 | 1631.3 ± 0.64 | 1664.4 ± 0.65
m1 = 0.01051 | 1497.4 ± 1.5 | – | – | – | – | – | –
m1 = 0.01057 | 1497.4 ± 1.5 | – | – | – | – | – | –
m1 = 0.01059 | – | 1514.1 ± 0.63 | 1530.9 ± 0.64 | – | 1597.9 ± 0.64 | 1631.3 ± 0.64 | 1664.5 ± 0.65
m1 = 0.01062 | – | 1514.1 ± 0.63 | 1530.9 ± 0.64 | 1564.4 ± 0.64 | 1597.9 ± 0.64 | 1631.3 ± 0.64 | 1664.5 ± 0.65
m1 = 0.01068 | – | 1514.1 ± 0.63 | 1530.9 ± 0.64 | – | 1597.9 ± 0.64 | 1631.3 ± 0.64 | 1664.5 ± 0.65
m1 = 0.0107 | 1497.5 ± 1.5 | – | – | – | – | – | –
m1 = 0.01075 | – | 1514.1 ± 0.63 | 1530.9 ± 0.64 | 1564.4 ± 0.64 | 1597.9 ± 0.64 | 1631.3 ± 0.64 | 1664.5 ± 0.65

O=c1[nH]cnc2c1ncn2[C@H]1C[C@H](O)[C@@H](CO)O1 [2'-deoxyinosine] + O
Settings | speed of sound [m/s]
100 kPa, m1 = 0.02199 | 1498.1 ± 1.5
100 kPa, m1 = 0.02301 | 1498.2 ± 1.5
100 kPa, m1 = 0.024 | 1498.3 ± 1.5
100 kPa, m1 = 0.02493 | 1498.3 ± 1.5
100 kPa, m1 = 0.02599 | 1498.4 ± 1.5
100 kPa, m1 = 0.02701 | 1498.5 ± 1.5
100 kPa, m1 = 0.02813 | 1498.6 ± 1.5
100 kPa, m1 = 0.02896 | 1498.6 ± 1.5
100 kPa, m1 = 0.02994 | 1498.7 ± 1.5
10000 kPa, m1 = 0.02283 | 1514.8 ± 0.64
10000 kPa, m1 = 0.0239 | 1514.9 ± 0.64
10000 kPa, m1 = 0.02481 | 1514.9 ± 0.64
10000 kPa, m1 = 0.02661 | 1515 ± 0.64
10000 kPa, m1 = 0.02749 | 1515.1 ± 0.64
10000 kPa, m1 = 0.02755 | 1515.1 ± 0.64
10000 kPa, m1 = 0.02877 | 1515.2 ± 0.64
10000 kPa, m1 = 0.02944 | 1515.2 ± 0.64
20000 kPa, m1 = 0.02283 | 1531.6 ± 0.64
20000 kPa, m1 = 0.0239 | 1531.7 ± 0.64
20000 kPa, m1 = 0.02481 | 1531.7 ± 0.64
20000 kPa, m1 = 0.02661 | 1531.9 ± 0.64
20000 kPa, m1 = 0.02749 | 1531.9 ± 0.64
20000 kPa, m1 = 0.02755 | 1531.9 ± 0.64
20000 kPa, m1 = 0.02877 | 1532 ± 0.64
20000 kPa, m1 = 0.02944 | 1532 ± 0.64
40000 kPa, m1 = 0.02283 | 1565.2 ± 0.64
40000 kPa, m1 = 0.0239 | 1565.3 ± 0.64
40000 kPa, m1 = 0.02481 | 1565.3 ± 0.64
40000 kPa, m1 = 0.02661 | 1565.5 ± 0.64
40000 kPa, m1 = 0.02749 | 1565.5 ± 0.64
40000 kPa, m1 = 0.02755 | 1565.5 ± 0.64
40000 kPa, m1 = 0.02877 | 1565.6 ± 0.64
40000 kPa, m1 = 0.02944 | 1565.6 ± 0.64
60000 kPa, m1 = 0.02283 | 1598.7 ± 0.64
60000 kPa, m1 = 0.0239 | 1598.8 ± 0.64
60000 kPa, m1 = 0.02481 | 1598.9 ± 0.64
60000 kPa, m1 = 0.02661 | 1599 ± 0.64
60000 kPa, m1 = 0.02749 | 1599 ± 0.64
60000 kPa, m1 = 0.02755 | 1599 ± 0.64
60000 kPa, m1 = 0.02877 | 1599.1 ± 0.64
60000 kPa, m1 = 0.02944 | 1599.2 ± 0.64
80000 kPa, m1 = 0.02283 | 1632.1 ± 0.64
80000 kPa, m1 = 0.0239 | 1632.1 ± 0.65
80000 kPa, m1 = 0.02481 | 1632.2 ± 0.65
80000 kPa, m1 = 0.02661 | 1632.3 ± 0.65
80000 kPa, m1 = 0.02749 | 1632.4 ± 0.65
80000 kPa, m1 = 0.02755 | 1632.4 ± 0.65
80000 kPa, m1 = 0.02877 | 1632.5 ± 0.65
80000 kPa, m1 = 0.02944 | 1632.5 ± 0.65
100000 kPa, m1 = 0.02283 | 1665.2 ± 0.65
100000 kPa, m1 = 0.0239 | 1665.3 ± 0.65
100000 kPa, m1 = 0.02481 | 1665.3 ± 0.65
100000 kPa, m1 = 0.02661 | 1665.5 ± 0.65
100000 kPa, m1 = 0.02749 | 1665.5 ± 0.65
100000 kPa, m1 = 0.02755 | 1665.5 ± 0.65
100000 kPa, m1 = 0.02877 | 1665.6 ± 0.65
100000 kPa, m1 = 0.02944 | 1665.6 ± 0.65
